Measured values from patent US4673562A, “Bisamide bisthiol compounds useful for making technetium radiodiagnostic renal agents” (The Children's Medical Center Corporation, priority 1983, dated 1987).
“And” between values parts separate entries of the source, which are not always exact repeats. Equal entries are not always repeated.

Tests used:
[1] = Average % total dose in urine samples of dogs (Table II); format: in vivo, dog; settings: mean
Description: The diastereomeric ^99m Tc complexes formed by reduction of pertechnetate in the presence of (2-benzoylthioacetyl)- glycyl-(S-benzoyl)-cysteine methyl ester (compound XVI) and N-2-(benzoylthio)ethyl)-N'-1-carbomethoxy-(2-benzoylthio)ethyl]oxamide (compound XXXI) were synthesized and separated by high pressure liquid chromatography. The two fractions collected from the products of synthesis in each case were denoted (XVIA), (XVIB), (XXXIA), and (XXXIB), respectively.
Samples of each fraction were mixed with appropriate amounts of ^131 I-OIH and coinjected into normal dogs placed under a gamma camera. Images were recorded at 1, 5, 10, 15, 20, 25, 30 and 35 minutes after administration. The initial image at one minute was used to collect 750,000 counts. All subsequent images were exposed for the same length of time as this first image, and the number of counts noted. Immediately after each count, a urine sample was drawn from the bladder via a indwelling catheter, and the ^99m Tc ANd ^131 I activity determined using an ionization chamber. In this way, the counts collected in the camera images cound be related to absolute activity levels (mCi or μCi). The animals were then observed until the urine samples were free of ^99m Tc.
In Table II can be seen the average % total dose valus observed in the urine samples collected at each time point. Also quoted in parentheses are the standard deviation and standard error of the mean.

[2] = Gamma camera: % total dose in bladder, 99mTc complexes coinjected with 131I-OIH into normal dogs (Tables I, III); format: in vivo, dog; set-up: Comparison of % total dose in bladder versus 131I-OIH, column headed by drawing 19 (± s.d.): unit not given here; settings: for % Total Dose In Bladder (gamma camera data): single animals; for % total dose in bladder at 35 minutes, Average 99mTc (± s.d) / Comparison of % total dose in bladder versus 131I-OIH, column headed by drawing 19 (± s.d.): Table III; for % total dose in bladder at 35 minutes, Average 99mTc (± s.d): average of dogs; for Comparison of % total dose in bladder versus 131I-OIH, column headed by drawing 19 (± s.d.): dogs; for rate of excretion in the urine: versus 131I-OIH
Method: The two fractions collected from the products of synthesis in each case were denoted (XVIA), (XVIB), (XXXIA), and (XXXIB), respectively.
Images were recorded at 1, 5, 10, 15, 20, 25, 30 and 35 minutes after administration. The initial image at one minute was used to collect 750,000 counts. All subsequent images were exposed for the same length of time as this first image, and the number of counts noted. […] In this way, the counts collected in the camera images cound be related to absolute activity levels (mCi or μCi). The animals were then observed until the urine samples were free of ^99m Tc.
The values represent the calculated % total dose in the camera region of interest set over the bladder.

[3] = Biodistribution in Swiss Webster albino male mice, coinjected with 131I-OIH (Tables IV, V); format: in vivo, mouse; settings: for Blood, % total dose per organ ± s.d. / Intestine, % total dose per organ ± s.d. / Kidneys, % total dose per organ ± s.d. / Liver, % total dose per organ ± s.d. / Stomach, % total dose per organ ± s.d. / Urine, % total dose ± s.d.: Table IV, XVI A and 131I-OIH coinjected
Method: The diastereomers (XVIA) and (XVIB) were synthesized and then isolated by high pressure liquid chromatography as described previously, and their biodistributions obtained in groups in six Swiss Webster albino male mice. […] The mice were then placed in metabolic cages to collect urine. At 10 and 120 minutes after injection, the penis was ligated, the mice killed with chloroform vapor, and the organs disected.

[4] = 5 min post injection, normal dogs, 5 min
[5] = 10 min post injection, normal dogs, 10 min
[6] = 15 min post injection, normal dogs, 15 min
[7] = 20 min post injection, normal dogs, 20 min
[8] = 25 min post injection, normal dogs, 25 min
[9] = 30 min post injection, normal dogs, 30 min
[10] = 35 min post injection, normal dogs, 35 min

SMILES	Average % Total Dose in Urine Samples ([1]; 5 min post injection, 5 min) [% total dose]	Average % Total Dose in Urine Samples ([1]; 10 min post injection, 10 min) [% total dose]	Average % Total Dose in Urine Samples ([1]; 15 min post injection, 15 min) [% total dose]	Average % Total Dose in Urine Samples ([1]; 20 min post injection, 20 min) [% total dose]	Average % Total Dose in Urine Samples ([1]; 25 min post injection, 25 min) [% total dose]	Average % Total Dose in Urine Samples ([1]; 30 min post injection, 30 min) [% total dose]	Average % Total Dose in Urine Samples ([1]; 35 min post injection, 35 min) [% total dose]	% Total Dose In Bladder (gamma camera data) [2, 4]	% Total Dose In Bladder (gamma camera data) [2, 5]	% Total Dose In Bladder (gamma camera data) [2, 6]	% Total Dose In Bladder (gamma camera data) [2, 7]	% Total Dose In Bladder (gamma camera data) [2, 8]	% Total Dose In Bladder (gamma camera data) [2, 9]	% Total Dose In Bladder (gamma camera data) [2, 10]	% total dose in bladder at 35 minutes, Average 99mTc (± s.d) ([2]; 35 min) [% total dose]	Comparison of % total dose in bladder versus 131I-OIH, column headed by drawing 19 (± s.d.) ([2]; 35 min)	rate of excretion in the urine ([2]; normal dogs)	other results
O=C(O)C1C[S][Tc-]23(=[O])[S]CC(=O)[N]2CC(=O)[N]13 (single isomer, unassigned) [XVIA]	8.67	35.32	48.11	57.57	63.25	63.20	67.50	13.13 % total dose and 9.63 % total dose and 3.25 % total dose	38.08 % total dose and 34.15 % total dose and 33.73 % total dose	49.99 % total dose and 47.44 % total dose and 46.89 % total dose	57.29 % total dose and 59.01 % total dose and 56.40 % total dose	63.73 % total dose and 64.39 % total dose and 62.63 % total dose	63.67 % total dose and 66.95 % total dose and 58.77 % total dose	66.64 % total dose and 72.79 % total dose and 63.08 % total dose	67.50	91.71	comparable rates of excretion to each other and to OIH	pharmacokinetic behavior of the diastereomers ([2]; normal dogs): identical; Blood, % total dose per organ ± s.d. ([3]; 10 min): 2.24 ± 0.33 % total dose per organ; Intestine, % total dose per organ ± s.d. ([3]; 10 min): 1.07 ± 0.20 % total dose per organ; Kidneys, % total dose per organ ± s.d. ([3]; 10 min): 3.19 ± 0.41 % total dose per organ; Liver, % total dose per organ ± s.d. ([3]; 10 min): 1.39 ± 0.31 % total dose per organ; Stomach, % total dose per organ ± s.d. ([3]; 10 min): 0.10 ± 0.01 % total dose per organ; Urine, % total dose ± s.d. ([3]; 10 min): 65.01 ± 9.7 % total dose per organ; Blood, % total dose per organ ± s.d. ([3]; 120 min): 0.05 ± 0.01 % total dose per organ; Intestine, % total dose per organ ± s.d. ([3]; 120 min): 0.99 ± 0.59 % total dose per organ; Kidneys, % total dose per organ ± s.d. ([3]; 120 min): 0.11 ± 0.04 % total dose per organ; Liver, % total dose per organ ± s.d. ([3]; 120 min): 0.19 ± 0.03 % total dose per organ; Stomach, % total dose per organ ± s.d. ([3]; 120 min): 0.21 ± 0.47 % total dose per organ; Urine, % total dose ± s.d. ([3]; 120 min): 89.87 ± 2.70 % total dose per organ; clearance into the urine ([3]; mice, versus 131I-OIH): cleared rapidly into the urine at comparable rates to each other and to the radiopharmaceutical ^131 I-OIH
O=C(O)C1C[S][Tc-]23(=[O])[S]CC[N]2C(=O)C(=O)[N]13 (single isomer, unassigned) [XXXIA]	3.56	12.52	18.25	24.10	28.62	33.63	35.89	5.76 % total dose and 4.12 % total dose and 0.81 % total dose	15.30 % total dose and 12.39 % total dose and 9.87 % total dose	22.26 % total dose and 15.99 % total dose and 16.51 % total dose	28.21 % total dose and 21.59 % total dose and 22.50 % total dose	32.68 % total dose and 25.47 % total dose and 27.72 % total dose	38.08 % total dose and 30.43 % total dose and 32.34 % total dose	41.57 % total dose and 31.19 % total dose and 34.90 % total dose	35.89	46.80	a significant difference exists between (XXXIA) and (XXXIB)	–
O=C(O)C1C[S][Tc-]23(=[O])[S]CC[N]2C(=O)C(=O)[N]13 (single isomer, unassigned) [XXXIB]	13.56	31.40	42.13	51.00	57.23	60.60	62.93	15.45 % total dose and 12.59 % total dose and 12.63 % total dose	37.76 % total dose and 28.47 % total dose and 27.98 % total dose	49.26 % total dose and 41.85 % total dose and 35.28 % total dose	61.08 % total dose and 48.71 % total dose and 43.22 % total dose	67.47 % total dose and 55.87 % total dose and 48.35 % total dose	70.23 % total dose and 60.72 % total dose and 50.84 % total dose	69.76 % total dose and 61.09 % total dose and 57.93 % total dose	62.93	77.80	a significant difference exists between (XXXIA) and (XXXIB)	–
